Reference: patent US5368841A, “Photodynamic therapy for the destruction of the synovium in the treatment of rheumatoid arthritis and the inflammatory arthritides” (The General Hospital Corporation, priority 1993, dated 1994)

Key:
[1] = rabbit, in vivo
[2] = system: NBT-2 (rat bladder carcinoma); assay: Intracellular PpIX synthesis versus cell proliferation rate (Table 4); assay type: cell-based; details: Dt 13.5 h
[3] = system: 5PAM (murine squamous cell carcinoma); assay: as above; assay type: cell-based; details: Dt 14 h
[4] = system: EJ (human bladder carcinoma); assay: as above; assay type: cell-based; details: Dt 23 h
[5] = system: HSF (human skin fibroblast); assay: as above; assay type: cell-based; details: Dt 27 h
[6] = parameters: species or system New Zealand White rabbits; details: rabbit, in vivo
Protocol: (§1) Thirty New Zealand White rabbits weighing 2-4 kg were sensitized over a six week period with two cutaneous injections of ovalbumin suspended in Fruends adjuvant. At six weeks, the knee joints of all animals were challenged with an intra-articular injection of ovalbumin solution. Seven days following joint challenge, 25 animals received systemic intravenous injections with Photofrin® (2.0 mg/kg). Animals were killed at 6, 12, 24, 48 and 72 hours post Photofrin® injection and tissue samples were obtained of skin, quadriceps muscle, knee synovium, articular cartilage, meniscus, bone and tendon. Tissue weight was measured (Mettler AE 163 balance) and tissue samples were frozen at -90 degrees C. (Revco Ultra Low Freezer) until dye extraction.
The biodistribution of Photophrin® within synovium, articular cartilage and meniscus was also studied with fluorescence microscopy. At each of the harvest intervals of 6, 12, 24, 48 and 72 hours post injection, tissue specimens were obtained from experimental and control animals. Samples were placed in O.C.T. medium and frozen at -90 C. Unstained frozen sections at 10 microns were prepared using a cryostat (Microm, Inc., Heidelberg, Germany) and analyzed with a fluorescence microscope (Axiophot, Zeiss, Oberkochen, Germany) under epiluminescence of a mercury lamp (HBO 200 W/2, Zeiss). […]

[7] = parameters: species or system New Zealand White rabbits; details: rabbit, in vivo; remark: listed apart in the source
Protocol: as §1
For extraction, tissue samples were homogenized (Homogenizer, Model PT 10/35, Brinkman Instruments, Co., Westbury, N.Y.) in 8 cc 0.1N NaOh solution. Each sample was centrifuged at 17,000 RPM (Sorvall RC-5B, refrigerated superspeed centrifuge, DuPont instruments) for 20 minutes. The fluorescence of 2 cc of supernatant was measured with a spectrofluorometer (Model Flourolog 2, Spex Industries, Inc., Edison, N.J.) and compared to that of standard solutions of Photofrin® with known concentration, and Photofrin® mixed with supernatant of extracted control quadriceps muscle. The excitation wavelength 366 nm and fluorescence spectrum between 600 and 700 nm was analyzed. Untreated animals will served as controls and for background correction.

[8] = rabbit, in vivo; remark: listed apart in the source
Protocol: Photochemotherapeutic synovectomy was performed on an antigen induced arthritis (AIA) model in 12 New Zealand white rabbits in a double control study. After a six week sensitization period, the joints of all animals were challenged bilaterally with an injection of albumin suspended in Freund's adjuvant. After five days, eight animals received systemic injections of 2 mg/kg of Photophrin® II. At 24 hours, four animals underwent bilateral arthrotomy procedures. The right knee joint of each was exposed to 100J/cm2 of 630 nm laser light over a 20 minute period. The left knees, not receiving the laser light application, served as controls. At 48 hours post HPD injection, an additional 4 animals underwent the identical operative procedures. Post-operatively, all animals were returned to their cages and allowed free movement. […] At one month post treatment, animals were sacrificed, knee joint synovium was then harvested, fixed, and stained with H and E for pathological evaluation.

NCC(=O)CCC(=O)O [ALA, δ-aminolevulinic acid]
ALA observed in the synovium [1]: large amounts

C=CC1=C(C)c2cc3[nH]c(cc4nc(cc5[nH]c(cc1n2)c(C)c5CCC(=O)O)C(CCC(=O)O)=C4C)c(C)c3C=C [PpIX, Protoporphyrin IX]
Intracellular PpIX (4 h) [2]: 160 a moles/cell | Intracellular PpIX (4 h) [3]: 160 a moles/cell | Intracellular PpIX (4 h) [4]: 100 a moles/cell | Intracellular PpIX (4 h) [5]: 40 a moles/cell

Photofrin®
uptake by fluorescence microscopy in synovium [6]: significant uptake at 12, 24, 48 and 72 hours | selectivity of uptake in inflamed synovium [7]: selectively taken up in synovium at 24 and 48 hours post systemic injection | uptake in articular cartilage, meniscus, muscle and tendon [7]: insignificant | Photofrin® concentration in tissue (inflamed synovium) ([7]; iv, 2 mg/kg): greater than 4 micrograms/gram of tissue | time of maximum uptake in inflamed synovium ([7]; iv, 2 mg/kg): 48 h | side effects of synovium destruction [8]: without significant side effects
